Measured values taken from US12329739B2, “Isoflavonoid compounds and methods for the treatment of cancer” (Aardvark Therapeutics, Inc., priority 2010, dated 2025).

What was measured:
[1] = test system: A2780; test: MTT proliferation assay, A2780; format: cell-based
Method: (§1) Proliferation Assays. IC50 values were determined for each cell line. Cells were seeded in 96-well plates at an appropriate cell density as determined from growth kinetics analysis and cultured for 5 days in the absence and presence of the test compounds. Cell proliferation was assessed after the addition of 20 μl of 3-4,5 dimethylthiazol-2,5-diphenyl tetrazolium bromide (MTT, 5 mg/ml in PBS, Sigma) for 5 hrs at 37° C. according to manufacturer's instructions. IC50 values were calculated from semi-log plots of % of control proliferation on the y-axis against log dose on the x-axis.
(§2) Anti-proliferative Activity of Isoflavonoid Derivatives. IC50 values were determined for each cell line after 120 h of exposure.

[2] = test system: MM2200; test: MTT proliferation assay, MM2200; format: cell-based; conditions: Table 2, Melanoma, MM2200, 120 hrs of exposure
Method: as §1, §2
Activity data is provided is Table 2.

[3] = test system: CP70; test: MTT proliferation assay, CP70; format: cell-based
Method: as §1, §2

[4] = test system: SKBR-3; test: MTT proliferation assay, SKBR-3; format: cell-based, human
Method: The human colorectal adenocarcinoma line HCT-116 (CCL-247) and the human breast adenocarcinoma line SK-BR-3 (HTB-30) were cultured in McCoy's 5a Medium (Invitrogen) containing 1.5 mM L-glutamine and 2.2 g/L sodium bicarbonate. The human colorectal adenocarcinoma line SW620 (CCL-227) was cultured in Leibovitz's L-15 Medium (Invitrogen) containing 2.05 mM L-glutamine.
as §1, §2

[5] = test system: A2780 ovarian cancer cells; test: Combination with carboplatin, proliferation of A2780 cells; format: cell-based; conditions: for enhancement of the anti-cancer effect of carboplatin: A2780, depending on exposure regimen (24 hr concurrent or sequential)
Method: In vitro toxicity in normal and cancer cells. Cells were seeded in 96-well plates at an appropriate cell density as determined from growth kinetics analysis. Depending on the plating efficiency and lag phase of individual cell lines, cells were allowed to plate down prior to drug exposure. Intra-experimental single agent controls were included to ensure IC50 values obtained for each cell line matched previous IC50 determinations. Four analogue concentrations were employed in each analysis. Analogue concentrations used in each assay were chosen based on IC50 values, which formed the top concentration of analogue used. Subsequent concentrations were chosen based on simple ½ or 1/10 dilutions of the top analogue concentration employed (i.e. 2, 1, 0.5, 0.25 μM). Nine 1/10 serial dilutions of chemotherapeutic were employed with the top chemotherapeutic concentration being 50 μM.
For combined analysis, analogue concentrations were held constant through 1/10 serial dilutions of chemotherapeutic in growth medium (top chemotherapeutic concentration employed was 50 μM). Combined cultures were cultured for 5 days.
The sequence of administration effect of each agent on chemotherapeutic IC50 values was assessed by exposing plated cells to a single agent in sequence for 24 hr. To assess the isoflavonoid derivative→chemotherapeutic sequence, plated cells were first exposed to the appropriate analogue concentrations and incubated at 37° C. for 24 hr. Cells were washed with growth medium and then exposed to the appropriate chemotherapeutic concentrations and incubated for 24 hr. Cells were then washed and incubated for a further 3 days. To assess the chemotherapeutic→isoflavonoid derivative sequence, the procedure was reversed.
Cell proliferation was assessed after the addition of 20 μl of 3-4,5 dimethylthiazol-2,5-diphenyl tetrazolium bromide (MTT, 2.5 mg/ml in PBS, Sigma) for 3-4 hrs at 37° C. according to manufacturer's instructions. IC50 values were calculated from semi-log plots of % of control proliferation on the y-axis against log dose on the x-axis.
3-D model analysis of the cytotoxic interaction between drug A and drug B enables the representation of predicted inhibitory effect of two drugs in combination in 3 dimensions to reveal actual regions of synergy or antagonism. The 3D synergy plots are based on a theory of “Theoretical Additivity” (TA or […]) as outlined by Kanzawa et al. Theoretical Additivity was calculated from the cytotoxicities of drug A and drug B as monotherapies using the following formula which assumes the drugs are mutually exclusive inhibitors: […]
The TA is calculated for each combination of drug concentrations and subtracted from the observed experimental effect for each combination to give a measurement of synergistic or enhanced action.
Combination index (CI) analysis, which employs the median-effect principle correlating drug dose to cytotoxicity, was also employed to assess synergy. The median-effect equation is utilized to calculate the dose of a drug that inhibits “x” percent of cells (Chou and Talalay, 1984). D=Dm[fa/(1−fa)]^1/m
In vitro Assessment of Combination of Optically Active Compound 31 and Carboplatin. Combination studies employed both 24 hr concurrent exposure, and 24 hr sequential exposure (racemic compound 32→Carboplatin) regimens. In both studies, four analogue concentrations (0.25, 0.5, 1 and 5 μM) were held constant against titrated carboplatin. When 1 and 5 μM of compound 32 was assessed in combination with the lowest concentration of carboplatin employed in this study (0.4 μM), no IC50 for carboplatin was achieved due the high levels of cell kill observed (30-40% of control).

[6] = test system: MDA-MB-468; test: MTT proliferation assay, MDA-MB-468; format: cell-based, human
Method: The human gastric cancer cell line AGS (CRL-1739) was cultured in Hams F-12K (Kaighans modification) medium containing 2 mM L-glutamine, 2.5 g/L sodium bicarbonate and 2 mM sodium pyruvate. The human breast adenocarcinoma line MDA-MB-468 (HTB-132) was cultured in DMEM:F12 (1:1) medium containing 2.5 mM L-glutamine, 2.4 g/L sodium bicarbonate, supplemented with an additional 2 mM L-glutamine.
as §1, §2

[7] = test system: PC3; test: MTT proliferation assay, PC3; format: cell-based
Method: as §1, §2

[8] = test system: A2058; test: MTT proliferation assay, A2058; format: cell-based; conditions: Homo sapiens, A2058, 120 h
Method: as §1, §2

[9] = test system: SK-Hep-1; test: MTT proliferation assay, SK-Hep-1; format: cell-based, human; conditions: Homo sapiens, SK-HEP1; Liver, SK-Hep-1, 120 h of exposure
Method: (§3) The human hepatocellular carcinoma lines HepG2 (HB-8065), SK-HEP-1 (HTB-52) and the normal human lung fibroblast line IMR-90 (CCL-186) were cultured in Minimum Essential Eagles Medium containing 2 mM L-glutamine, 2.2 g/L sodium bicarbonate, supplemented with 1 mM sodium pyruvate and 0.1 mM non-essential amino acids. The human hepatocellular carcinoma line JHH-1 (JCRB1062) was cultured in Williams E Medium (Invitrogen) containing 2.2 g/L sodium bicarbonate, supplemented with 2 mM L-glutamine. The hepatocellular carcinoma line HuH-7 (JCRB0403) was cultured in DMEM, supplemented with 2 mM L-glutamine.
as §1, §2

[10] = test system: COLO205; test: MTT proliferation assay, COLO205; format: cell-based, human; conditions: Homo sapiens, COLO 205; CRC, COLO205, 120 h of exposure
Method: (§4) The human non-small cell lung adenocarcinoma lines NCI-H1299 (CRL-5803), NCI-H460 (HTB-177), NCI-H358 (CRL-5807), NCI-H838 (CRL-5844), the human colorectal adenocarcinoma lines COLO 205 (CCL-222), HCT-15 (CCL-225) and the human gastric cancer cell line NCI-N87 (CRL-5822) were cultured in RPMI 1640 medium containing 2 g/L sodium bicarbonate (Hyclone/Invitrogen) supplemented with 2 mM L-glutamine (Gibco) 1 mM sodium pyruvate (Sigma), 10 mM HEPES (Sigma) and 4500 mg/L glucose (Sigma). The human non-small cell lung adenocarcinoma line NCI-H2126 (CCL-256) was cultured in DMEM:F12(1:1) (Hyclone/Invitrogen) containing 2.5 mM L-glutamine 2.4 g/L sodium bicarbonate supplemented with 5% fetal bovine serum (FBS), an additional 2 mM L-glutamine, 15 mM HEPES, 0.005 mg/ml insulin (Sigma), 0.01 mg/ml transferrin (Sigma), 30 nM sodium selenite (Sigma), 10 nM hydrocortisone (Sigma) and 10 nM beta-estradiol (Sigma). The human colorectal adenocarcinoma line HT-29 (HTB-38) and the human gastric cancer cell lines OE-19 (#96071721) and MKN1 (JCRB0252) were cultured in RPMI 1640 media supplemented with 2 mM L-glutamine.
as §1, §2

[11] = test system: MM200; test: MTT proliferation assay, MM200; format: cell-based; conditions: Melanoma, MM200, 120 h of exposure
Method: as §1, §2

[12] = test system: 4405; test: MTT proliferation assay, 4405; format: cell-based; conditions: Melanoma, 4405, 120 h of exposure
Method: as §1, §2

[13] = test system: DU145; test: MTT proliferation assay, DU145; format: cell-based; conditions: Homo sapiens, DU-145; Prostate, DU145, 120 h of exposure
Method: as §1, §2

[14] = test system: HepG2; test: MTT proliferation assay, HepG2; format: cell-based, human; conditions: Homo sapiens; Liver, HepG2, 120 h of exposure
Method: as §3, §1, §2

[15] = test system: A549; test: MTT proliferation assay, A549; format: cell-based; conditions: Homo sapiens; NSCLC, A549, 120 h of exposure
Method: as §1, §2

[16] = test system: CALU3; test: MTT proliferation assay, CALU3; format: cell-based; conditions: Homo sapiens, Calu-3; NSCLC, CALU3, 120 h of exposure
Method: as §1, §2

[17] = test system: HuH-7; test: MTT proliferation assay, HuH-7; format: cell-based, human; conditions: Homo sapiens; Liver, HuH-7, 120 h of exposure
Method: as §3, §1, §2

[18] = test system: LNCaP; test: MTT proliferation assay, LNCaP; format: cell-based; conditions: Homo sapiens, Prostate, 120 h of exposure
Method: as §1, §2

[19] = test system: NCI-H460; test: MTT proliferation assay, NCI-H460; format: cell-based, human; conditions: Homo sapiens; NSCLC, NCI-H460, 120 h of exposure
Method: as §4, §1, §2

[20] = test system: R-182; test: MTT proliferation assay, R-182; format: cell-based; conditions: Ovarian, R-182, 120 h of exposure
Description: Tissue culture. The multidrug resistant primary epithelial ovarian cancer cell line R-182 TARA was a gift from Dr. Gil Mor (Yale University, New Haven, CT, USA). This cell line was derived by explant from ovarian tumors and cultured as previously described. All other cell lines were purchased from American Type Culture Collection (ATCC, Manassas, VA, USA) with the exception of MKN1, HuH-7, JHH-1, which were purchased from the Japanese Collection of Research Bioresources (JCRB, Osaka, Japan), and OE19 which was purchased from the European Collection of Cell Cultures (ECACC, Salisbury, UK).
as §1, §2

Oc1ccc([C@@H]2c3ccc(O)cc3OC[C@@H]2c2ccc(O)cc2)cc1 [Compound 33]
IC50 ([1]; Homo sapiens, A2780, 120 h, Table 2, Ovarian, A2780, 120 hrs of exposure): ≥ 10000 nM
IC50 [2]: ≥ 10000 nM
IC50 ([3]; 120 h, Table 2, Ovarian, CP70, 120 hrs of exposure): ≥ 10000 nM
IC50 ([4]; Homo sapiens, SK-BR-3, 120 h, Table 2, Breast, SKBR-3, 120 hrs of exposure): ≥ 10000 nM
activity enhancement in combination with carboplatin ([5]; A2780 cell line, 31 compared with compound 32): did not impart any activity enhancement or antagonistic effect

Oc1ccc([C@H]2c3ccc(O)cc3OC[C@H]2c2ccc(O)cc2)cc1 (racemic) [Compound 32]
IC50 ([1]; Table 2, Ovarian, A2780, 120 hrs of exposure): 510 to 1500 nM
IC50 [2]: 510 to 1500 nM
IC50 ([6]; Table 2, Breast, MDA-MB-468, 120 hrs of exposure): 510 to 1500 nM
IC50 ([7]; Table 2, Prostate, PC3, 120 hrs of exposure): 510 to 1500 nM
IC50 ([3]; Table 2, Ovarian, CP70, 120 hrs of exposure): 510 to 1500 nM
IC50 ([4]; Table 2, Breast, SKBR-3, 120 hrs of exposure): 510 to 1500 nM
IC50 ([8]; Table 2, Melanoma, A2058, 120 hrs of exposure): 150 to 500 nM
enhancement of the anti-cancer effect of carboplatin ([5]; 0.25 μM of compound): 1.5-2 fold
enhancement of the anti-cancer effect of carboplatin ([5]; 0.5 μM of compound): 7-11 fold
cell kill level observed (no IC50 for carboplatin achieved) ([5]; 1 and 5 μM of compound plus 0.4 μM carboplatin, A2780): 30-40 % of control
compound concentration giving maximal activity enhancement with carboplatin ([5]; 3D method of Kanzawa, 12.5 μM carboplatin, A2780): 0.5 µM

Cc1c(O)ccc2c1OCC(c1ccc(O)cc1)C2c1ccc(O)cc1 (stereo not shown) [Compound 5, 3-(4-hydroxyphenyl)-4-(4-hydroxyphenyl)-8-methylchroman-7-ol]
IC50 ([1]; Homo sapiens, A2780, 120 h, Ovarian, A2780, 120 h of exposure): 150 to 500 nM
IC50 [9]: 150 to 500 nM
IC50 ([6]; Homo sapiens, MDA-MB-468, 120 h, Breast, MDA-MB-468, 120 h of exposure): 150 to 500 nM
IC50 ([7]; Homo sapiens, PC-3, 120 h, Prostate, PC3, 120 h of exposure): 150 to 500 nM
IC50 ([3]; 120 h, Ovarian, CP70, 120 h of exposure): ≤ 150 nM
IC50 ([4]; Homo sapiens, SK-BR-3, 120 h, Breast, SKBR-3, 120 h of exposure): ≤ 150 nM
IC50 [10]: 1600 to 10000 nM
IC50 ([8]; Melanoma, A2058, 120 h of exposure): ≤ 150 nM
IC50 [11]: 150 to 500 nM
IC50 [12]: 150 to 500 nM
IC50 [13]: 150 to 500 nM
IC50 [14]: ≤ 150 nM
IC50 [15]: 150 to 500 nM
IC50 [16]: ≤ 150 nM
IC50 [17]: 150 to 500 nM
IC50 [18]: 150 to 500 nM
IC50 [19]: 150 to 500 nM
IC50 [20]: 150 to 500 nM
